Assay results: US20070275935A1, “Estratriene Derivatives” (priority 2003, published 2007)

Columns and labels:
[1] = test system: GM-CSF production by Human Airway Smooth Muscle Cells; assay: Interleukin-1α-mediated GM-CSF production by HASM cells (ELISA); type: cell-based; conditions: inhibition of interleukin-1α (1 ng/ml)-mediated GM-CSF production; concentration not given; * not defined
[2] = test system: type II airway epithelial cell line, A549; assay: Proliferation of A549 cells in response to 5% FCS; type: cell-based, human; conditions: Homo sapiens, A549; proliferation in response to 5% FCS; pIC50 of 4.00 = inactive; read-out: A549 PIC50 (converted)
Protocol: The effects of 4NO were evaluated in a number of non-smooth muscle cell types including the type II airway epithelial cell line, A549 (ATCC accession number ATCC CCL-185 Lung carcinoma human) (FIG. 2); the human breast tumour cell line, MCF7, (ATTC accession number ATCC HTB-22 breast adenocarcinoma, human) which expresses the estrogen receptor (FIG. 3); and in bovine aortic endothelial cells (BAEC) (FIG. 4).
The effects of test compounds were examined on proliferation of A549 cells in response to 5% fetal calf serum (FCS). Analogues were pre-incubated with A549 cells for 30 min before the addition of FCS. The incubation continued for 48 h before cell enumeration. Data are expressed as a percentage of the cell number in vehicle treated wells and are presented as the mean and standard error of the mean. Similarly the effects of 2MEO and 4NO on proliferation of MCF7 in response to 5% FCS or epidermal growth factor (EGF, 300 pM) were examined, as were the effects of 2MEO and 4NO on proliferation of BAEC in response to 5% FCS. The incubation parameters were the same as described above and results are presented as the mean and standard error of the mean.
This assay was also used to evaluate the ability of other compounds to inhibit the proliferation of non-smooth muscle cells MCF7 and A549 (described above) in response to 5% FCS. The results of this assay are presented in Table 4 (columns G and H respectively). The potency of the compounds was considerably less in inhibiting proliferation of these cell lines than it was for HASM. These observations support the contention that there are cell type-specific targets for the actions of these compounds. Such assays may also be adopted to examine the effect of other disclosed compounds on these cells or on other non-smooth muscle cells of interest.

[3] = test system: Human airway smooth muscle (HASM) cells; assay: Thrombin-induced proliferation of human airway smooth muscle (HASM) cells, cell number after 48 h; type: cell-based; conditions: for IC50: Homo sapiens, negative log of the concentration that reduces the thrombin-induced proliferative response by 50%, pIC50 of 4.00 = inactive, read-out: HASM-Thr pIC50 (converted); for HASM- Thr pIC25 / HASM- Thr pIC75: two site model, thrombin-induced proliferation; for HASM- Thr pIC25: first phase (inhibition up to 50%); for HASM- Thr pIC75: second phase (inhibition up to 100%)
Protocol: Human airway smooth muscle (HASM) cells were cultured from macroscopically normal bronchi (0.5-2 cm diameter) obtained from lung resection or heart-lung transplant specimens provided by the Alfred Hospital (Melbourne) according to methods published in detail previously (Fernandes et al., 1999).
Approximately 0.1 g of smooth muscle was stripped from the wall of the bronchus for each cell culture. Dissected tissue was immersed in Dulbecco's modified Eagle's medium (DMEM) (Flow Laboratories, Scotland), supplemented with 100 U/mL penicillin G (CSL, Australia) and 100 ug/mL streptomycin (CSL, Australia). The tissue was rinsed in phosphate buffered saline (PBS; Oxoid, England) and the airway smooth muscle was chopped into 2 mm^3 pieces and digested for 2 hours in DMEM containing elastase (0.5 mg/mL: Worthington Biochemical, USA) followed by a 12 hour incubation in DMEM containing collagenase (1 mg/mL) (Worthington Biochemical, USA), at 37° C. with agitation.
The resulting cell suspension was centrifuged and washed three times in phosphate buffered saline (PBS). Following the last centrifugation step, the cells were resuspended in 25 mL of DMEM supplemented with L-glutamine (2 mM: Sigma, USA), penicillin G (100 U/mL), streptomycin (100 μg/mL), amphotericin B (2 μg/mL: Wellcome, UK) and heat-inactivated FCS (10% v/v: CSL, Australia) and seeded into 25 cm^2 culture flasks. The primary isolates were incubated for 7 to 14 days to reach confluence.
Cells were harvested weekly by 10 min exposure to trypsin (0.5%: CSL, Australia) and EDTA (1 mM in PBS: BDH, Australia) and passaged at a 1:3 ratio into 75 cm^2 flasks.
The activity of the compounds has been established in cell culture by exploring their effects on mitogen-induced increases in cell number. We investigated the effects of 2MEO and its analogues, 4NO and 4NOM, on the proliferation of HASM cells in response to the proliferative stimulus of either thrombin of basic fibroblast growth factor (bFGF). Cells were seeded onto 6-well plates at a density of 1.5×10^4 cells cm^2, made quiescent by removal of serum-containing media for 24 hours and then stimulated for 48 h with either thrombin (0.3 U/ml) or bFGF (300 pM). The test compounds were pre-incubated with HASM cells for 30 minutes before the addition of thrombin. At the end of the 48 hour incubation period, cells were detached from the culture plate by trypsin (0.5% w/v in PBS containing 1 mM EDTA), incubated for 5 minutes at ambient temperature in PBS containing 0.5% (w/v) trypan blue, washed twice (2% FCS in PBS), isolated by centrifugation (12,000×g, 5 min) and resuspended in 200 μl 2% FCS in PBS for counting in a haemocytometer chamber.
Data are expressed as a percentage of the cell number in vehicle treated wells and are presented as the mean and standard error of the mean.
The potency of the compounds in regulating thrombin-induced proliferation of human airway smooth muscle (HASM) was assessed in cells maintained in culture as described above. The potencies are presented as pIC50 values (Column A of Table 4) denoting the negative log of the concentration that reduces the proliferative response by 50%. […] When the single phase model was determined to be more appropriate, the values of pIC25 and pIC75 were not calculated or shown in the table.

Estrogen Receptor (ER) = target: T1, Estrogen Receptor (ER) (Rattus norvegicus, UniProt P06211); assay: Estrogen receptor binding assay, 3H-estradiol displacement from rat uterine cytosol; conditions: 3H-estradiol displacement, cytosolic preparations of rat uterus; pIC50 of 4.00 = inactive; read-out: ER-RLB pIC50 (converted)
T1 construct: using rat uterine cytosol as a source of ER; from tissue; host or cells: rat uterus, cytosol fraction (30000 x g supernatant)
T1 sequence (P06211 1-600): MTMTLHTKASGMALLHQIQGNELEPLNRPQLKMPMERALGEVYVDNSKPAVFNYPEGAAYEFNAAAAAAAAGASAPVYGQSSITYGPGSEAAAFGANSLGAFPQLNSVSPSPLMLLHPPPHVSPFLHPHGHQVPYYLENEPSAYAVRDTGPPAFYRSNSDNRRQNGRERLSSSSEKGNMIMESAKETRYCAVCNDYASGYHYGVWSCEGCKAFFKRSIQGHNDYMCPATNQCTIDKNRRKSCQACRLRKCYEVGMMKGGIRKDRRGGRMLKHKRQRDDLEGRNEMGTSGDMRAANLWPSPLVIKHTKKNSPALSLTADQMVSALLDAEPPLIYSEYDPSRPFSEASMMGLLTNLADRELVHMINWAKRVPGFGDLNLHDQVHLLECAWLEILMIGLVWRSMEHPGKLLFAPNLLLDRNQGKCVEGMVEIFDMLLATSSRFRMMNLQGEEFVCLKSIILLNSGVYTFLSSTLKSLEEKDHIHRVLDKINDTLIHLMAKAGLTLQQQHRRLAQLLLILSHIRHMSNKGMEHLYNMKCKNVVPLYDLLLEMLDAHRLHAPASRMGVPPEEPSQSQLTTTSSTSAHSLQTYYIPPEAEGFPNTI
Protocol: Uteri (6-10 per batch) were isolated from Brown Norway rats (250-350g), washed free from blood in saline and homogenised in 10 mM Tris buffer (pH 7.4, 1.5 mM EDTA, 10% w/v glycerol, 1 mM phenylmethylsulfonylfluoride) using an Ultra Turrax homogeniser for 3 by 15 s bursts with intervals of 1 min on ice.
Nuclear material and cellular debris were removed by centrifugation at 750×g at 4° C. for 10 min (Sorvall RT7); the cytosol component was prepared by centrifugation at 30000×g for 120 min at 4° C. in a Beckman JM1 centrifuge. The cytosol was diluted to approximately 1 mg/ml protein (rat uterine extract) determined using the Bradford method (Biorad).
Separation of bound from free radioligand was achieved by the addition of 500 μL of dextran-coated charcoal (400 mg dextran clinical grade C and 2g of charcoal, Norit A in 100 mL of Tris buffer) and centrifugation at 4° C. in a Sorval RT7 at 2000×g for 10 min.

Pulmonary fibroblasts = assay: bFGF-induced proliferation of human pulmonary fibroblasts; type: cell-based; conditions: inhibition of bFGF (300 pM)-induced proliferation, mean and SEM, minimum 3 experiments; 1 μM; * not defined
Protocol: Samples of parenchyma from human lung transplant recipients were dissected away from the pleura, chopped into fragments of less than 1 mm^2 and allowed to adhere to plastic culture dishes in a minimal volume of DMEM containing serum (10%) and antibiotics (as used for HASM culture). After the tissue fragments had adhered to the base of the dish additional medium was added. Medium was changed twice weekly until an explant culture formed, at which time the tissue fragments were removed and the cells were passaged in a 1:3 split ratio by exposure to trypsin weekly to produce pulmonary fibroblast cultures.
Pulmonary fibroblasts were cultured in DMEM, serum-deprived for 24 h, in the presence or absence of the test compounds, and then stimulated with 300 pM bFGF for 48 h before harvest and counting of viable cells. An increase pulmonary fibroblast cell number was prevented by 4NOM over the concentration range of 1 to 1000 nM.
A range of the disclosed compounds was subsequently examined using the above assay system, and the results are summarized in Column E of Table 4. […] The proliferation of parenchymal fibroblasts is important in the development of pulmonary fibrosis.

## COc1cc2c(cc1O)CC[C@@H]1[C@@H]2CC[C@]2(C)/C(=N/OCc3ccc([N+](=O)[O-])cc3)CC[C@@H]12 [CP-DM-3-103, 2-methoxyestrone-17-(4-nitrobenzyl)oxime]
[1]
  HASM - GM-CSF: either did not inhibit or produced less inhibition
[2]
  IC50: 40.7 µM
[3]
  IC50: 3.16 µM

## COc1cc2c(cc1O)/C(=N/OCc1cccc([N+](=O)[O-])c1)C[C@@H]1[C@@H]2CC[C@]2(C)/C(=N/O)CC[C@@H]12 [CP-DM-3-105, 2-methoxy-6-(3-nitrobenzyloxy)iminoestrone-17-oxime]
Estrogen Receptor (ER)
  IC50: 25.1 µM
[2]
  IC50: 5.13 µM
[3]
  IC50: 0.1 µM
  HASM- Thr pIC25: 8.85
  HASM- Thr pIC75: 5.59

## COc1cc2c(cc1O)/C(=N/OCc1cccc([N+](=O)[O-])c1)C[C@@H]1[C@@H]2CC[C@]2(C)[C@@H](O)CC[C@@H]12 [CP-DM-3-106, 2-methoxy-6-(3-nitrobenzyloxy)iminoestradiol]
Estrogen Receptor (ER)
  IC50: 0.178 µM
[2]
  IC50: 7.59 µM
[3]
  IC50: 0.0251 µM
  HASM- Thr pIC25: 9.35
  HASM- Thr pIC75: 6.36

## COc1ccc(CO/N=C2\C[C@@H]3[C@H](CC[C@]4(C)[C@@H](O)CC[C@@H]34)c3cc(OC)c(O)cc32)cc1 [CP-DM-4-5, 2-methoxy-6-(4-methoxybenzyloxy)-iminoestradiol]
Estrogen Receptor (ER)
  IC50: 0.794 µM
[2]
  IC50: 5.01 µM
[3]
  IC50: 0.135 µM
  HASM- Thr pIC25: 10.46
  HASM- Thr pIC75: 5.27

## COc1cc2c(cc1O)/C(=N/OCc1cc(F)cc(F)c1)C[C@@H]1[C@@H]2CC[C@]2(C)/C(=N/O)CC[C@@H]12 [CP-DM-4-36, 6-(3,5-difluorobenzyloxy)imino-2-methoxyestrone-17-oxime]
Estrogen Receptor (ER)
  IC50: 20 µM
[2]
  IC50: 10 µM
[3]
  IC50: 0.129 µM
  HASM- Thr pIC25: 7.91
  HASM- Thr pIC75: 5.69

## COc1cc2c(cc1O)/C(=N/OCc1ccc(C#N)cc1)C[C@@H]1[C@@H]2CC[C@]2(C)/C(=N/O)CC[C@@H]12 [CP-DM-4-38, 6-(4-cyanobenzyloxy)imino-2-methoxyestrone-17-oxime]
Pulmonary fibroblasts
  pFib - bFGF: 26 ± 26
[3]
  HASM- Thr pIC25: 4.00
  HASM- Thr pIC75: 4.00

## COc1cc2c(cc1O)/C(=N/OCc1ccc(OC(F)(F)F)cc1)C[C@@H]1[C@@H]2CC[C@]2(C)/C(=N/O)CC[C@@H]12 [CP-DM-4-68, 2-methoxy-6-(4-trifluoromethoxybenzyloxy)iminoestrone-17-oxime]
[1]
  HASM - GM-CSF: 8 ± 13
[3]
  IC50: 1.82 µM
  HASM- Thr pIC25: 7.91
  HASM- Thr pIC75: 5.00

## COc1cc2c(cc1O)/C(=N/OCc1ccc(SC(F)(F)F)cc1)C[C@@H]1[C@@H]2CC[C@]2(C)/C(=N/O)CC[C@@H]12 [CP-DM-4-69, 2-methoxy-6-(4-trifluoromethylthiobenzyloxy)iminoestrone-17-oxime]
Pulmonary fibroblasts
  pFib - bFGF: 87 ± 13*
[3]
  HASM- Thr pIC25: 4.00
  HASM- Thr pIC75: 4.00

## COc1cc2c(cc1O)/C(=N/OCc1ccc(C(C)C)cc1)C[C@@H]1[C@@H]2CC[C@]2(C)/C(=N/O)CC[C@@H]12 [CP-DM-4-77, 2-methoxy-6-(4-isopropylbenzyloxy)iminoestrone-17-oxime]
[1]
  HASM - GM-CSF: 26 ± 13
[2]
  IC50: 3.16 µM
[3]
  IC50: 3.02 µM

## COc1cc2c(cc1O)/C(=N/OCc1ccc(C)cc1)C[C@@H]1[C@@H]2CC[C@]2(C)[C@@H](O)CC[C@@H]12 [CP-DM-4-78, 2-methoxy-6-(4-methylbenzyloxy)iminoestradiol]
[1]
  HASM - GM-CSF: 35 ± 9*
Estrogen Receptor (ER)
  IC50: 0.229 µM
[2]
  IC50: 10 µM
[3]
  IC50: 1 µM

## COc1cc2c(cc1O)/C(=N/OCc1ccc([N+](=O)[O-])cc1)C[C@@H]1[C@@H]2CC[C@]2(C)[C@@H](OC(C)=O)CC[C@@H]12 [CP-DM-4-91, 2-Methoxy-6-(4-nitrobenzyloxy)iminoestradiol-17-acetate]
[2]
  IC50: 10 µM
[3]
  IC50: 6.31 µM
